Read-outs that look alike come from different tables or passages of the source.
Tests used:
[1] = biological target: T1, FXR receptor (Homo sapiens, UniProt Q96RI1); assay: FXR activity at the cellular level (FXRE luciferase reporter in 293T cells); assay type: cell-based
T1 construct: expressed in transfected cells; host or cells: 293T cells
T1 sequence (Q96RI1 1-486): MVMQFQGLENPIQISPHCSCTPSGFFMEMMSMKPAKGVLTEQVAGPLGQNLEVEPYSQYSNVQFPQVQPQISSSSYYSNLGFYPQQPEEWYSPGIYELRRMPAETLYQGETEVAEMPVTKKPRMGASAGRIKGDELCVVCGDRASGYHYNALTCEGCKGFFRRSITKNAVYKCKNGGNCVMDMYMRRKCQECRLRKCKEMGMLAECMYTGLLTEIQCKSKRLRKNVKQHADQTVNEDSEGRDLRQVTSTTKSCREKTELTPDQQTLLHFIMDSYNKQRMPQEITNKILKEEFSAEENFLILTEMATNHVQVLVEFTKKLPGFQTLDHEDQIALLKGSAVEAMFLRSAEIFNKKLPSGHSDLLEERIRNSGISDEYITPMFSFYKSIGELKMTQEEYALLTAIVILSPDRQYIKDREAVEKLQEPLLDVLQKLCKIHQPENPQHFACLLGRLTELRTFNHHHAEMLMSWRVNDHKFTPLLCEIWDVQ
Procedure: The cells were cultured for 24 hours to ensure plasmid expression. Then the FXR receptor agonists to be tested were added and incubated for 18 hours. The fluorescence intensity was detected using a luciferase kit (steady-Glo Luciferase Assay system) to reflect the compound's activation efficiency on the FXR receptor.

[2] = biological target: T2, recombinant GST-FXR fusion protein (Homo sapiens, UniProt Q96RI1); assay: FXR activity at the molecular level (AlphaScreen); assay type: biochemical
T2 sequence (Q96RI1 1-486): T1 sequence (Q96RI1 1-486)
Procedure: Test Method for FXR Activity at the Molecular Level
FXR activity was determined using recombinant GST-FXR fusion protein by AlphaScreen detection reagent from PerkinElmer. The reaction in this method was carried out in a 384-well plate, and the total reaction volume was 15 μL. A mixture of protein, agonist, co-regulatory factor, AlphaScreen® acceptor beads and AlphaScreen® donor beads was reacted in a buffer containing Tris-HCl 50 mM (pH7.4), 50 mM NaCl, BSA 0.1%, and 1 mM DTT. The FXR activity was reflected by the fluorescence signal intensity at 570 nm wavelength detected by the Envision fluorescence detector.

[3] = 293T cells, luciferase reporter
[4] = 293T cells, luciferase reporter, read-out: FXR activity at the celluar level EC50
[5] = AlphaScreen, GST-FXR, read-out: FXR activity at the molecular level EC50

Row | SMILES | FXR activity at the celluar level Activity relative to OCA (%) 10 μM [1, 3] | EC50 [1, 4] | EC50 [2, 5] | EC50 [1] | difference of activity on FXR at molecular level, endo-compound vs exo-compound ([2]; endo- versus exo-compound) | EC50 [2]
1 | O=c1[nH]c(-c2ccc(N3[C@@H]4CC[C@H]3C[C@@H](OCc3c(-c5ccccc5OC(F)(F)F)noc3C3CC3)C4)cc2F)no1 [Example 10] | 102% | 0.1 to 1 nM | 10 to 100 nM |  |  | 
2 | O=c1[nH]c(-c2ccc(N3[C@@H]4CC[C@H]3C[C@@H](OCc3c(-c5ccccc5C(F)(F)F)noc3C3CC3)C4)cc2F)no1 [Example 9] | 102% | 0.1 to 1 nM | 10 to 100 nM |  |  | 
3 | O=c1[nH]c(-c2ccc(N3[C@@H]4CC[C@H]3C[C@@H](OCc3c(-c5ccccc5OC(F)F)noc3C3CC3)C4)nc2)no1 [Example 11] | 108% | 1 to 10 nM | 10 to 100 nM |  |  | 
4 | O=c1[nH]c(-c2ccc(N3[C@@H]4CC[C@H]3C[C@@H](OCc3c(-c5ccccc5OC(F)F)noc3C3CC3)C4)cc2F)no1 [Example 13] | 108% | 0.1 to 1 nM | 10 to 100 nM |  |  | 
5 | Cc1ccccc1-c1noc(C2CC2)c1CO[C@H]1C[C@H]2CC[C@@H](C1)N2c1ccc(-c2noc(=O)[nH]2)c(F)c1 [Example 14] | 106% | 0.1 to 1 nM | 10 to 100 nM |  |  | 
6 | O=c1[nH]c(-c2ccc(N3[C@@H]4CC[C@H]3C[C@@H](OCc3c(-c5c(Cl)cccc5Cl)noc3C3CC3)C4)nc2)no1 [Example 4] | 103% | < 0.1 nM | < 10 nM |  |  | 
7 | O=c1[nH]c(-c2ccc(N3[C@@H]4CC[C@H]3C[C@@H](OCc3c(-c5c(Cl)cccc5Cl)noc3C3CC3)C4)cc2F)no1 [Example 8] | 102% |  | < 10 nM | < 0.1 nM |  | 
8 | O=c1[nH]c(-c2ccc(N3[C@@H]4CC[C@H]3C[C@@H](OCc3c(-c5c(Cl)cccc5Cl)noc3C3CC3)C4)cc2)no1 [Example 1] | 88% | 1 to 10 nM | < 10 nM |  | more than 100 times | 
9 | O=c1[nH]c(-c2ccc(N3[C@@H]4CC[C@H]3C[C@@H](OCc3c(-c5ccccc5C(F)(F)F)noc3C3CC3)C4)nc2)no1 [Example 5] | 141% | 0.1 to 1 nM | 10 to 100 nM |  |  | 
10 | O=c1[nH]c(-c2ccc(N3[C@@H]4CC[C@H]3C[C@@H](OCc3c(-c5c(F)cccc5F)noc3C3CC3)C4)nc2)no1 [Example 3] | 116% | 0.1 to 1 nM | 10 to 100 nM |  |  | 
11 | O=c1[nH]c(-c2ccc(N3[C@@H]4CC[C@H]3C[C@H](OCc3c(-c5c(Cl)cccc5Cl)noc3C3CC3)C4)cc2)no1 [Example 2] | 73% | > 100 nM | > 1000 nM |  |  | 
12 | Cc1ccccc1-c1noc(C2CC2)c1CO[C@H]1C[C@H]2CC[C@@H](C1)N2c1ccc(-c2noc(=O)[nH]2)cn1 [Example 12] | 105% | 1 to 10 nM | 10 to 100 nM |  |  | 
13 | O=c1[nH]c(-c2ccc(N3[C@@H]4CC[C@H]3C[C@@H](OCc3c(-c5ccccc5OC(F)(F)F)noc3C3CC3)C4)nc2)no1 [Example 6] | 122% | 0.1 to 1 nM | 10 to 100 nM |  |  | 
14 | O=c1[nH]c(-c2ccc(N3[C@@H]4CC[C@H]3C[C@@H](OCc3c(-c5c(F)cccc5F)noc3C3CC3)C4)cc2F)no1 [Example 7] | 117% |  |  | 0.1 to 1 nM |  | 10 to 100 nM
